Values of other authors in US20230030915A1, “Pet Food Compositions” (Hill's Pet Nutrition, Inc., priority 2019, published 2023).

Tested on: piglets

- maximum supplementation rate at which safe (via feed): 2 000 mg/kg complete feed
SMILES: C[N+](C)(C)CC(=O)O [Betaine, Glycine betaine]
- margin of safety (at 2 000 mg/kg complete feed): below 5
